{"source": "patent US20030022792A1", "about": "“HERBICIDAL COMPOSITIONS FOR TOLERANT OR RESISTANT CEREAL CROPS” (priority 1998, published 2003)", "assay_type_in_all_cases": "in vivo", "key": {"Lamium purpureum": {"system": "Lamium purpureum", "test": "Field trial with cereal (wheat), herbicidal action", "conditions": "application at 4-leaf stage, scoring 28 days after application", "experimental": "(§1) Transgenic cereal plants with a resistance to one or more herbicides (A) together with typical weed plants were grown in the open on 2×5 m plots under natural field conditions; alternatively, weed infestation occurred naturally when the cereal plants were grown.\n(§2) 2, 4, 6 and 8 weeks after the application, the herbicidal activity of the active substances or active substance mixtures was scored visually with reference to the treated plots in comparison to untreated control plots. The damage to, and the development of, all aerial parts of the plants was recorded. Scoring was done on the basis of a percentage sale (100% action=all plants destroyed; 50% action=50% of the plants and green parts of the plants destroyed; 0% action=no recognizable effect=like control plot. The mean of the score values of in each case 4 plots was calculated."}, "Galium aparine": {"system": "Galium aparine", "test": "Field trial with cereal (wheat), herbicidal action", "conditions": "application at 4-leaf stage, scoring 28 days after application", "experimental": "as §1, §2"}, "Alopecurus myosuroides": {"system": "Alopecurus myosuroides", "test": "Field trial with cereals (wheat), herbicidal action", "conditions": "application at start of stocking, scoring 3 weeks after application", "experimental": "as §1\n(§3) […] The damage to, and the development of, all aerial parts of the plants was recorded. Scoring was done on the basis of a percentage sale (100% action=all plants destroyed; 50% action=50% of the plants and green parts of the plants destroyed; 0% action=no recognizable effect=like control plot. The mean of the score values of in each case 4 plots was calculated."}, "Digitaria Sanguinalis": {"system": "Digitaria Sanguinalis", "test": "Field trial with cereals (wheat), herbicidal action", "conditions": "application at start of stocking, scoring 3 weeks after application", "experimental": "as §1, §3"}, "Lolium multiflorum": {"system": "Lolium multiflorum", "test": "Field trial with cereal (wheat), herbicidal action", "conditions": "for Herbicidal action (%) against Lolium multiflorum: scoring 27 days after application", "experimental": "as §1, §3"}, "Ambrosia maritima": {"system": "Ambrosia maritima", "test": "Field trial with cereal (wheat), herbicidal action", "conditions": "application at start of stocking, scoring 11 days after application", "experimental": "as §1, §3"}, "[1]": {"conditions": "Lolium multiflorum, read-out: Herbicidal action (%) against Lolium multiflorum"}}, "data": [{"smiles": "CP(=O)(O)CCC(N)C(=O)O", "note": "(centres unmarked) [(A1.2), glufosinate-ammonium]", "values": [{"measurement": "Herbicidal action (%) against Lamium purpureum", "setting": "Lamium purpureum; 200 g of a.s./ha", "value": 8, "unit": "%"}, {"measurement": "Herbicidal action (%) against Lamium purpureum", "setting": "Lamium purpureum; 330 g of a.s./ha", "value": 35, "unit": "%"}, {"measurement": "Herbicidal action (%) against Galium aparine", "setting": "Galium aparine; 100 g of a.s./ha", "value": 0, "unit": "%"}, {"measurement": "Herbicidal action (%) against Galium aparine", "setting": "Galium aparine; 200 g of a.s./ha", "value": 0, "unit": "%"}, {"measurement": "Herbicidal action (%) against Galium aparine", "setting": "Galium aparine; 300 g of a.s./ha", "value": 0, "unit": "%"}, {"measurement": "Herbicidal action (%) against Alopecurus myosuroides", "setting": "Alopecurus myosuroides; 200 g of a.s./ha", "value": 55, "unit": "%"}, {"measurement": "Herbicidal action (%) against Alopecurus myosuroides", "setting": "Alopecurus myosuroides; 400 g of a.s./ha", "value": 83, "unit": "%"}, {"measurement": "Herbicidal action (%) against Alopecurus myosuroides", "setting": "Alopecurus myosuroides; 600 g of a.s./ha", "value": 93, "unit": "%"}, {"measurement": "Herbicidal action (%) against Digitaria Sanguinalis", "setting": "Digitaria Sanguinalis; 200 g of a.s./ha", "value": 45, "unit": "%"}, {"measurement": "Herbicidal action (%) against Digitaria Sanguinalis", "setting": "Digitaria Sanguinalis; 400 g of a.s./ha", "value": 90, "unit": "%"}, {"measurement": "Herbicidal action (%) against Digitaria Sanguinalis", "setting": "Digitaria Sanguinalis; 600 g of a.s./ha", "value": 99, "unit": "%"}, {"measurement": "pest or weed control at 200 g/ha", "setting": "Lolium multiflorum; [1]", "value": 0, "unit": "%"}, {"measurement": "pest or weed control at 330 g/ha", "setting": "Lolium multiflorum; [1]", "value": 15, "unit": "%"}, {"measurement": "pest or weed control at 500 g/ha", "setting": "Lolium multiflorum; [1]", "value": 78, "unit": "%"}, {"measurement": "Herbicidal action (%) against Ambrosia maritima", "setting": "Ambrosia maritima; 200 g of a.s./ha", "value": 58, "unit": "%"}, {"measurement": "Herbicidal action (%) against Ambrosia maritima", "setting": "Ambrosia maritima; 400 g of a.s./ha", "value": 100, "unit": "%"}, {"measurement": "Herbicidal action (%) against Ambrosia maritima", "setting": "Ambrosia maritima; 600 g of a.s./ha", "value": 100, "unit": "%"}]}, {"smiles": "CCc1cnc(C2=NC(C)(C(C)C)C(=O)N2)c(C(=O)O)c1", "note": "(centres unmarked) [(A3.2), imazethapyr]", "values": [{"measurement": "pest or weed control at 70 g/ha", "setting": "Lolium multiflorum; Lolium multiflorum, wheat field trial, 70 g of a.s./ha, application at 3-leaf stage, scoring after application, read-out: Herbicidal action (%) against Lolium multiflorum", "value": 0, "unit": "%"}]}, {"smiles": "CC(C)c1ccc(NC(=O)N(C)C)cc1", "note": "[(B1.1.1), isoproturon]", "values": [{"measurement": "pest or weed control at 1500 g/ha", "setting": "Lolium multiflorum; Lolium multiflorum, wheat field trial, 1500 g of a.s./ha, application at 3-leaf stage, scoring after application, read-out: Herbicidal action (%) against Lolium multiflorum", "value": 55, "unit": "%"}]}, {"smiles": "CC(C)N(C(=O)COc1nnc(C(F)(F)F)s1)c1ccc(F)cc1", "note": "[(B1.1.3), fluthiamide]", "values": [{"measurement": "pest or weed control at 180 g/ha", "setting": "Lolium multiflorum; Lolium multiflorum, wheat field trial, 180 g of a.s./ha, application at 3-leaf stage, scoring after application, read-out: Herbicidal action (%) against Lolium multiflorum", "value": 25, "unit": "%"}]}, {"smiles": "CCC(CC)Nc1c([N+](=O)[O-])cc(C)c(C)c1[N+](=O)[O-]", "note": "[(B1.1.5), pendimethalin]", "values": [{"measurement": "Herbicidal action (%) against Lamium purpureum", "setting": "Lamium purpureum; 960 g of a.s./ha", "value": 75, "unit": "%"}]}, {"smiles": "C#CCOC(=O)[C@@H](C)Oc1ccc(Oc2ncc(Cl)cc2F)cc1", "note": "[(B1.2.2), clodinafop-propargyl]", "values": [{"measurement": "pest or weed control at 50 g/ha", "setting": "Lolium multiflorum; Lolium multiflorum, wheat field trial, 50 g of a.s./ha, application at 3-leaf stage, scoring after application, read-out: Herbicidal action (%) against Lolium multiflorum", "value": 73, "unit": "%"}]}, {"smiles": "COC(=O)C(C)Oc1ccc(Oc2ccc(Cl)cc2Cl)cc1", "note": "(centres unmarked) [(B1.2.3), diclofop-methyl]", "values": [{"measurement": "Herbicidal action (%) against Lolium multiflorum", "setting": "Lolium multiflorum; wheat field trial, 500 g of a.s./ha, application at 3-leaf stage", "value": 60, "unit": "%"}, {"measurement": "Herbicidal action (%) against Lolium multiflorum", "setting": "Lolium multiflorum; wheat field trial, 750 g of a.s./ha, application at 3-leaf stage", "value": 83, "unit": "%"}]}, {"smiles": "COc1cc(OC)nc(NC(=O)NS(=O)(=O)c2nc(C(F)(F)F)ccc2C(=O)O)n1", "note": "[(B1.2.6), flupyrsulfuron]", "values": [{"measurement": "pest or weed control at 7.5 g/ha", "setting": "Lolium multiflorum; [1]", "value": 25, "unit": "%"}]}, {"smiles": "COC(=O)c1ccccc1S(=O)(=O)NC(=O)Nc1nc(C)nc(OC)n1", "note": "[(B2.1), metsulfuron-methyl]", "values": [{"measurement": "Herbicidal action (%) against Lamium purpureum", "setting": "Lamium purpureum; 3 g of a.s./ha", "value": 75, "unit": "%"}]}, {"smiles": "COC(=O)c1ccc(NS(C)(=O)=O)cc1S(=O)(=O)NC(=O)Nc1nc(OC)cc(OC)n1", "note": "[(B2.3), methyl 4-methylsulfonylamino-2-(4,6-dimethoxypyrimidin-2-ylcarbamoylsulfamoyl)benzoate]", "values": [{"measurement": "pest or weed control at 5 g/ha", "setting": "Lolium multiflorum; Lolium multiflorum, wheat field trial, 5 g of a.s./ha, application at 3-leaf stage, scoring after application, read-out: Herbicidal action (%) against Lolium multiflorum", "value": 65, "unit": "%"}]}, {"smiles": "CCS(=O)(=O)c1nc2ccccn2c1S(=O)(=O)NC(=O)Nc1nc(OC)cc(OC)n1", "note": "[(B2.6), sulfosulfuron]", "values": [{"measurement": "pest or weed control at 20 g/ha", "setting": "Lolium multiflorum; Lolium multiflorum, wheat field trial, 20 g of a.s./ha, application at 3-leaf stage, scoring after application, read-out: Herbicidal action (%) against Lolium multiflorum", "value": 35, "unit": "%"}]}, {"smiles": "COC(=O)c1ccccc1S(=O)(=O)NC(=O)N(C)c1nc(C)nc(OC)n1", "note": "[(B4.1.1), tribenuron-methyl]", "values": [{"measurement": "Herbicidal action (%) against Lamium purpureum", "setting": "Lamium purpureum; 15 g of a.s./ha", "value": 68, "unit": "%"}]}, {"smiles": "COc1cc(OC)nc(NC(=O)NS(=O)(=O)N(C)S(C)(=O)=O)n1", "note": "[(B4.1.2), amidosulfuron]", "values": [{"measurement": "Herbicidal action (%) against Galium aparine", "setting": "Galium aparine; 20 g of a.s./ha", "value": 75, "unit": "%"}]}, {"smiles": "CCOC(=O)/C(Cl)=C/c1cc(N2C(=O)C3=C(CCCC3)C2=O)ccc1Cl", "note": "[(B4.1.6), cinidon-ethyl]", "values": [{"measurement": "Herbicidal action (%) against Galium aparine", "setting": "Galium aparine; 35 g of a.s./ha", "value": 65, "unit": "%"}]}, {"smiles": "Cc1cc(Cl)ccc1O[C@@H](C)C(=O)O", "note": "[(B4.2.2), CMPP-P]", "values": [{"measurement": "Herbicidal action (%) against Galium aparine", "setting": "Galium aparine; 750 g of a.s./ha", "value": 73, "unit": "%"}]}, {"smiles": "Cc1cc(Cl)ccc1OCC(=O)O", "note": "[(B4.2.4), MCPA]", "values": [{"measurement": "Herbicidal action (%) against Ambrosia maritima", "setting": "Ambrosia maritima; 500 g of a.s./ha", "value": 0, "unit": "%"}]}, {"smiles": "Nc1c(Cl)c(F)nc(OCC(=O)O)c1Cl", "note": "[(B4.2.5), fluroxypyr]", "values": [{"measurement": "Herbicidal action (%) against Galium aparine", "setting": "Galium aparine; 120 g of a.s./ha", "value": 75, "unit": "%"}]}, {"smiles": "N#Cc1cc(Br)c(O)c(Br)c1", "note": "[(B4.3.1), bromoxynil]", "values": [{"measurement": "Herbicidal action (%) against Lamium purpureum", "setting": "Lamium purpureum; 180 g of a.s./ha", "value": 55, "unit": "%"}, {"measurement": "Herbicidal action (%) against Lamium purpureum", "setting": "Lamium purpureum; 360 g of a.s./ha", "value": 83, "unit": "%"}]}, {"smiles": "CCOC(=O)C(Cl)Cc1cc(-n2nc(C)n(C(F)F)c2=O)c(F)cc1Cl", "note": "(centres unmarked) [(B4.4.1), carfentrazone-ethyl]", "values": [{"measurement": "Herbicidal action (%) against Galium aparine", "setting": "Galium aparine; 10 g of a.s./ha", "value": 45, "unit": "%"}, {"measurement": "Herbicidal action (%) against Galium aparine", "setting": "Galium aparine; 20 g of a.s./ha", "value": 55, "unit": "%"}]}, {"smiles": "CCOC(=O)COc1cc(-c2nn(C)c(OC(F)F)c2Cl)c(F)cc1Cl", "note": "[(B4.4.2), pyraflufen-ethyl]", "values": [{"measurement": "Herbicidal action (%) against Alopecurus myosuroides", "setting": "Alopecurus myosuroides; 10 g of a.s./ha", "value": 0, "unit": "%"}, {"measurement": "Herbicidal action (%) against Digitaria Sanguinalis", "setting": "Digitaria Sanguinalis; 10 g of a.s./ha", "value": 0, "unit": "%"}]}, {"smiles": "O=C(Nc1ccc(F)cc1F)c1cccnc1Oc1cccc(C(F)(F)F)c1", "note": "[Diflu, diflufenican]", "values": [{"measurement": "pest or weed control at 150 g/ha", "setting": "Lolium multiflorum; Lolium multiflorum, wheat field trial, 150 g of a.s./ha, application at 3-leaf stage, scoring after application, read-out: Herbicidal action (%) against Lolium multiflorum", "value": 35, "unit": "%"}]}]}
